Results on twelve molecules are retold here after US12514856B2, “Pediatric trazodone compositions and method of treatment thereof” (ANGELINI S.p.A., priority 2019, dated 2026).

Several values for one entry are separate records, joined by “and”; a condition that tells them apart may be missing. Equal values may be shown once. Read-outs that look alike come from different tables or passages of the source. Where only a bound is given, the exact number is not on record here.

Data set [1] in a line: Toxicological Risk Assessment of excipients in oral drops (MDI vs ADI). Also noted: species or system children. Particulars: Maximum Daily Therapeutic Dose up to 0.5 mg/kg/day; for MDI (for 2 years aged children): Trazodone HCl 1.5% oral solution; for MDI (for 6 years aged children): Trazodone HCl 3.0% oral solution. On the procedure: The Toxicological Risk Assessment of the formulations was performed to evaluate the safety of the excipients employed in the two oral drops formulations for pediatric use.

The conditions of data set [2]: cited from earlier work.
The nature of a further data set: Caco-2 permeability. The class given is in vitro ADME. Particulars: human. From the text: (§1) Derivation of key parameters is described below.
In general terms: Caco-2 cells form a polarised layer with tight junctions and transporters.

Another data set deals with CYP3A4 (Homo sapiens, UniProt P08684). As to the kind of experiment: CYP3A4-mediated metabolism (retrograde calculation).
The test system of the next data set is human liver microsome. In words: Additional HLM CLint (retrograde calculation). Particulars: 30% of hepatic metabolism assigned to undefined pathways.
Text: as §1

Data set [3] in a line: Physical chemistry of trazodone. The class given is physicochemical.
Text: as §1

Data set [4] has as its system children with insomnia affected by NDDs. As to the kind of experiment: Phase II trial in children with insomnia affected by NDDs. The class given is in vivo, human. How it is done:
Three different doses, 0.25/0.4 and 0.5 mg/kg/day were administered at bedtime in fruit juice (in a volume of about 200 mL) in the pediatric population of from 2 to 17 years old.
A multi-centre, randomised, parallel-group, single-blind phase II trial was designed, based on the prediction described in the previous Example 3, to evaluate the pharmacokinetics and PKPD relationship of trazodone after single and repeated oral doses in children from 2 to years of age, suffering from insomnia, affected by neurodevelopmental disorders (NDDs: autism spectrum disorder, intellectual disability or attention deficit hyperactivity disorder). The single-blind phase II trial is still ongoing.
The primary objective of this study is to assess the pharmacokinetics (PK) of trazodone after single and repeated doses in patients aged from 2 to years.
Among the secondary objectives of this study, there are the establishment of the pharmacokinetic-pharmacodynamic (PKPD) relationship of trazodone, as assessed by actigraphy measures, and the definition of the dose rationale in children and adolescents aged from […] taking into account the therapeutic exposure range in adults.
The parent's diary will also be used in the evaluation of the results. This phase II clinical trial is designed to assess the PK and PD of 3 dose levels of trazodone in children with insomnia affected by NDDs. A minimum of 36 patients will be randomly assigned (at least 30 evaluable patients, 10 for each treatment arm; at least 10 evaluable patients aged 2 to years, 10 evaluable patients aged 6 to […], 10 evaluable patients aged 12 to years; at least 3 patients for each age and treatment arm).
Patients are initially assigned to one of the 3 treatment arms. Patients in treatment arms 2 and 3 will receive 0.25 mg/kg/day for 3 days followed by a higher maintenance dose for 7 days: • Treatment arm 1: 0.25 mg/kg/day (on days 1 through 10) • Treatment arm 2: 0.4 mg/kg/day (0.25 mg/kg/day on days 1 through 3 and 0.4 mg/kg/day on days 4 through 10) • Treatment arm 3: 0.5 mg/kg/day (0.25 mg/kg/day on days 1 through 3 and 0.5 mg/kg/day on days 4 through 10).
Patients qualifying for the participation in the study at visit 1 (day 1, randomisation—first dose) have been admitted to the clinic at 2 out of 3 visits, according to a patient-specific PK sampling scheme. Due to the requirement of sparse sampling, each patient will contribute a total of 5 PK samples.
Sleep latency and total sleeping time have been recorded by actigraphy starting from 3 consecutive days prior to visit 1 up to the end of the treatment.
An interim analysis has been performed after completion of 18 patients to assess whether data collected allows the determination of the relevant PK parameters with the appropriate precision. The 18 patients are so distributed according treatment arms: 3 patients in treatment arm 1, 5 patients in treatment arm 2, 10 patients in treatment arm 3.

Data set [5] can be described thus: PBPK modelling (Simcyp Population-Based Simulator). The note with it: ER; fitting of concentration-time data following a single oral dose of 300 mg ER trazodone.
Data set [6] in a line: Blood binding (E:P ratio, equilibrium dialysis). The data set is classed as in vitro ADME.
Text: as §1
(In general: In equilibrium dialysis free small molecules cross a membrane that holds back macromolecules.)

The mark [7] stands for this setting: alternative value printed beside the first (EMA 2014; FDA 1998 USA; EFSA 2014; JECFA 1973).
Where [8] appears, read: first-listed value/reference (JECFA, SCF).

Sequence of CYP3A4 (P08684 whole entry): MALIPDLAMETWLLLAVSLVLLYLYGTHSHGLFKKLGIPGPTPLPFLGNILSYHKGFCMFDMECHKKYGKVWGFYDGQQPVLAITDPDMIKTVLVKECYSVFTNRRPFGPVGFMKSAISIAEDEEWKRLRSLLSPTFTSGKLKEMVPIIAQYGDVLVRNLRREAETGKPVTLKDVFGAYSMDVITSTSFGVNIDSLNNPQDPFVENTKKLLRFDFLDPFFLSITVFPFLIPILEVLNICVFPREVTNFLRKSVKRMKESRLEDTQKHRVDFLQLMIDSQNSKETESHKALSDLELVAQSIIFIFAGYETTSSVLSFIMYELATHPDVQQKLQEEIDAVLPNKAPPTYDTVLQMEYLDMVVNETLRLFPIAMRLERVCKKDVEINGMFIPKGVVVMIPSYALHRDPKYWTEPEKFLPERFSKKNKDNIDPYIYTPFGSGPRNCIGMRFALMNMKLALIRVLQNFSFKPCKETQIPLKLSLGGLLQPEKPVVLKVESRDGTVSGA

Consider `O=C(O)CC(O)(CC(=O)O)C(=O)O` [Citric acid anhydrous], for which, in data set [1], the “MDI (for 2 years aged children)” value is listed as 0.17 mg/kg/day and the “MDI (for 6 years aged children)” value is 0.08 mg/kg/day.
Regarding `O=C([O-])CN(CCN(CC(=O)[O-])CC(=O)O)CC(=O)O.[Na+].[Na+]` [Disodium edetate], the ADI in data set [2] (setting [7]) is 2.5 mg/kg/day. For the same molecule, in [2] (setting [8]), the ADI was 1.9 mg/kg/day and 1.9 (ex- mg/kg/day. Also, in data set [1], the “MDI (for 2 years aged children)” value is given as 0.02 mg/kg/day and the “MDI (for 6 years aged children)” value stood at 0.01 mg/kg/day.
Consider `C/C=C/C=C/C(=O)[O-].[K+]` [K-Sorbate], for which the values for the ADI in data set [2] (setting [7]) and in data set [2] (setting [8]) were 11 mg/kg/day and 3 mg/kg/day, respectively.
`CCCOC(=O)c1cc(O)c(O)c(O)c1` [Propyl gallate]: the ADI in [2] (setting [7]) is on record as 0.5 mg/kg/day. Also, in data set [2] (setting [8]), the ADI is given as 1.4 mg/kg/day. Further, in [1], the “MDI (for 2 years aged children)” value came out at 0.03 mg/kg/day and the “MDI (for 6 years aged children)” value is 0.02 mg/kg/day.
Consider `CC(O)CO` (stereo not shown) [Propylene glycol], for which the ADI in data set [2] (setting [7]) is given as 50 mg/kg/day. Besides, the ADI in data set [2] (setting [8]) was 25 mg/kg/day. In data set [1], the “MDI (for 2 years aged children)” value is on record as 10.00 mg/kg/day and the “MDI (for 6 years aged children)” value turned out to be 5.00 mg/kg/day.
On to `O=C([O-])c1ccccc1.[Na+]` [Sodium Benzoate], for which the ADI in data set [2] (setting [8]) was 5 mg/kg/day.
Consider `[Na+].[OH-]` [Sodium hydroxide], for which the ADI entry in [2] (setting [8]) is “Not limited”. Besides, in data set [1], the “MDI (for 2 years aged children)” value was determined as 0.04 mg/kg/day and the “MDI (for 6 years aged children)” value worked out at 0.02 mg/kg/day.
Take `OC[C@H]1O[C@H](O[C@]2(CCl)O[C@H](CCl)[C@@H](O)[C@@H]2O)[C@H](O)[C@@H](O)[C@H]1Cl` [Sucralose]: in [2] (setting [7]), the ADI is 5 mg/kg/day and 5 (USA) mg/kg/day. The ADI in data set [2] (setting [8]) is 15 (UE) mg/kg/day and 15 mg/kg/day and 15 (UE)^ mg/kg/day. For the same molecule, in data set [1], the “MDI (for 2 years aged children)” value is 0.05 mg/kg/day and the “MDI (for 6 years aged children)” value is listed as 0.03 mg/kg/day.
In the case of `OC[C@H]1O[C@@](CO)(O[C@H]2O[C@H](CO)[C@@H](O)[C@H](O)[C@H]2O)[C@@H](O)[C@@H]1O` [Sucrose], in data set [2] (setting [8]), the ADI entry is “GRAS”.
Turning to `COC(=O)c1ccc(O)cc1` [methyl parahydroxybenzoate], in data set [2] (setting [8]), the ADI was 10 mg/kg/day.
One may read the Papp as a coefficient for how fast a substance crosses the barrier. As to `COCCc1ccc(OCC(O)CNC(C)C)cc1` (stereo not shown) [metoprolol], in the data set “Caco-2 permeability” (Caco-2), the apparent permeability (Papp) is 28.1 ×10⁻⁶ cm/s.
The pKa is the negative logarithm of the acid dissociation constant. Read a high pKa as a group that holds its proton tightly. On to `O=c1n(CCCN2CCN(c3cccc(Cl)c3)CC2)nc2ccccn12` [trazodone], for which, at CYP3A4 (Retrograde calculation, 70% of hepatic metabolism assigned to CYP3A4), the “CLint, CYP3A4” value is 0.438 µL/min/pmol. The fmCYP3A4 at CYP3A4 (estimation of CYP3A4-mediated metabolism) is listed as 70%. Also, in “Caco-2 permeability” (Caco-2 cells, read-out: mean Papp), the Papp is 24.2 ×10⁻⁶ cm/s. The “Additional HLM CLint” value with human liver microsome is 25.7 µL/min/mg. Further, in data set [3], the “solubility as a function of pH” value was “fully soluble only at acidic pH and precipitates at pH values close to neutrality”. The molecule also registered a pKa in [3] (Monoprotic Base) of 6.61. The “cumulative total sleep time” value in data set [4] (actigraphy, patients showing higher exposure to trazodone) was “slightly longer sleep time”. In addition, in [4] (interim analysis), the “correlation between secondary PK parameters and relative change from baseline in total sleep time” value is listed as “correlations were observed”. The “Inter-individual variability in clearance estimates” value in data set [4] (pediatric patients vs adult subjects, interim analysis) is listed as “considerably higher than what has been observed previously in adult subject”. Further, the “dose proportionality of pharmacokinetics” value in data set [4] (pediatric patients, 0.25/0.4/0.5 mg/kg/day, interim analysis of 18 patients) was “dose-proportional”. Besides, the sleep time entry in [4] (pediatric population with NDD, 0.4 and 0.5 mg/kg/day by drops, preliminary) was “increase the sleep time”. Also, in data set [4] (visit 3, small proportion of patients assigned to 0.4 and 0.5 mg/kg dose, actigraphy), the total sleep time was over 9 h. For the same molecule, the ka entry in data set [5] is recorded as “ER: 0.07 hr^−1”. For the same molecule, the B/P in data set [6] (blood to plasma, calculated from measured E:P ratio) is recorded as 0.68. In addition, the “E:P ratio” value in [6] (erythrocyte to plasma ratio) is on record as “of 0.2”. Besides, the fup in [6] (fraction unbound in plasma, equilibrium dialysis) worked out at 0.0354.
